Test results from PubChem BioAssay (NCI).
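GI50 is the concentration that inhibits growth by half. TGI is the concentration that stops growth completely.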

How the values were obtained:
Assay in all cases: DTP human tumour cell line panel, 384-well format
[1] = tested on: U251 glioblastoma
[2] = tested on: SN12C renal
[3] = tested on: SW-620 colon
[4] = tested on: SK-MEL-5 melanoma
[5] = tested on: HL-60(TB) leukemia
[6] = tested on: ACHN renal
[7] = tested on: MCF7 breast
[8] = tested on: OVCAR-3 ovarian
[9] = tested on: HCT-116 colon
[10] = tested on: RXF 393 renal
[11] = tested on: NCI-H522 lung
[12] = tested on: PC-3 prostate
[13] = tested on: NCI-H226 lung
[14] = tested on: UACC-62 melanoma
[15] = tested on: LOX IMVI melanoma
[16] = tested on: SNB-19 CNS
[17] = tested on: UO-31 renal
[18] = tested on: MALME-3M melanoma
[19] = tested on: HOP-62 NSCLC
[20] = tested on: MDA-MB-231 breast
[21] = tested on: A549 NSCLC
[22] = tested on: NCI-H460 NSCLC
[23] = tested on: DU-145 prostate
[24] = tested on: IGROV1 ovarian
[25] = tested on: HCC-2998 colon
[26] = tested on: MOLT-4 leukemia
[27] = tested on: MDA-MB-468 breast
[28] = tested on: M14 melanoma
[29] = tested on: COLO 205 colon

## CNC[C@@H](NC(=O)c1ccc(-c2nc([C@H]3CC[C@H](O)[C@@H](F)C3)cnc2N)cc1F)c1cc(F)cc(Br)c1
[1]
  TGI: 31.4 µM
[2]
  GI50: 18.5 µM
  TGI: 32.5 µM
[3]
  GI50: 20.6 µM
  TGI: 35.1 µM
[4]
  GI50: 20.8 µM
  TGI: 35.2 µM
[5]
  GI50: 13.9 µM
  TGI: 26.9 µM
[6]
  GI50: 16.9 µM
  TGI: 30.6 µM
[7]
  GI50: 18 µM
  TGI: 31.9 µM
[8]
  GI50: 18 µM
  TGI: 32 µM
[9]
  GI50: 16.8 µM
  TGI: 30.6 µM
[10]
  GI50: 15.3 µM
  TGI: 28.7 µM
[11]
  GI50: 18.2 µM
  TGI: 32.1 µM
[12]
  GI50: 17.6 µM
  TGI: 31.5 µM
[13]
  GI50: 18.6 µM
  TGI: 33 µM
[14]
  GI50: 16.7 µM
  TGI: 30.5 µM
[15]
  GI50: 23.1 µM
  TGI: 37.7 µM
[16]
  GI50: 19.1 µM
  TGI: 33.3 µM
[17]
  GI50: 1.39 µM
  TGI: 2.87 µM
[18]
  GI50: 17.1 µM
  TGI: 30.9 µM
[19]
  GI50: 17.8 µM
  TGI: 31.7 µM
[20]
  GI50: 20.1 µM
  TGI: 34.4 µM
[21]
  GI50: 17 µM
  TGI: 31.1 µM
[22]
  GI50: 18.8 µM
  TGI: 33.2 µM
[23]
  GI50: 18.5 µM
  TGI: 32.8 µM
[24]
  GI50: 17.9 µM
  TGI: 34.5 µM
[25]
  GI50: 17.2 µM
  TGI: 31 µM
[26]
  GI50: 17.7 µM
  TGI: 31.6 µM
[27]
  GI50: 18.3 µM
  TGI: 32.2 µM
[28]
  GI50: 18.2 µM
  TGI: 32.2 µM
[29]
  GI50: 16.4 µM
  TGI: 30.1 µM
